Reference: ChEMBL document CHEMBL1201862, “PubChem BioAssay data set” (2004)
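The compound was tested at five concentrations on cells cultured in 96-well plates, with a 48-hour exposure period. The concentration for 50% growth inhibition is given as GI50.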 Calls of active or inactive are those of the source. Rule as the data show it: active = GI50 up to about 1.1 µM and inactive = higher.

Tests used:
Experiment in all cases: growth of human tumour cells (NCI), 48 h
[1] = tested on: A549
[2] = tested on: COLO 205
[3] = tested on: HCC 2998
[4] = tested on: SK-MEL-28
[5] = tested on: Hs-578T
[6] = tested on: SNB-19
[7] = tested on: HT-29
[8] = tested on: MDA-N
[9] = tested on: IGROV-1
[10] = tested on: SW-620
[11] = tested on: NCI-H460
[12] = tested on: MCF7
[13] = tested on: HCT-15
[14] = tested on: SF-268
[15] = tested on: NCI/ADR-RES
[16] = tested on: OVCAR-4
[17] = tested on: UO-31
[18] = tested on: HOP-92
[19] = tested on: SK-MEL-2
[20] = tested on: MDA-MB-435
[21] = tested on: UACC-257
[22] = tested on: SF-295
[23] = tested on: TK-10
[24] = tested on: CAKI-1
[25] = tested on: KM12
[26] = tested on: SK-OV-3
[27] = tested on: BT-549
[28] = tested on: DU-145
[29] = tested on: EKVX
[30] = tested on: SN12C
[31] = tested on: NCI-H226
[32] = tested on: 786-0
[33] = tested on: NCI-H23
[34] = tested on: HL-60
[35] = tested on: M14
[36] = tested on: SK-MEL-5
[37] = tested on: MDA-MB-231
[38] = tested on: OVCAR-8
[39] = tested on: LOX IMVI
[40] = tested on: UACC-62
[41] = tested on: OVCAR-5
[42] = tested on: U-251
[43] = tested on: SF-539
[44] = tested on: HCT-116
[45] = tested on: ACHN
[46] = tested on: CCRF-CEM
[47] = tested on: HOP-62
[48] = tested on: MOLT-4
[49] = tested on: NCI-H522
[50] = tested on: OVCAR-3
[51] = tested on: SNB-75
[52] = tested on: RXF 393
[53] = tested on: PC-3
[54] = tested on: K562
[55] = tested on: RPMI-8226
[56] = tested on: Malme-3M
[57] = tested on: T47D
[58] = tested on: A498
[59] = tested on: SR

Measured: GI50

COc1ccc(OC)c(/C=C2/C(=O)N/C(=N\C(C)=O)N2C)c1
inactive: [1] > 100 µM | [2] > 100 µM | [3] > 100 µM | [4] > 100 µM | [5] > 100 µM | [6] > 100 µM | [7] > 100 µM | [8] > 100 µM | [9] > 100 µM | [10] > 100 µM | [11] > 100 µM | [12] > 100 µM | [14] > 100 µM | [15] > 100 µM | [16] > 100 µM | [17] > 100 µM | [18] > 100 µM | [19] > 100 µM | [20] > 100 µM | [21] > 100 µM | [22] > 100 µM | [23] > 100 µM | [24] > 100 µM | [25] > 100 µM | [26] > 100 µM | [27] > 100 µM | [28] > 100 µM | [29] > 100 µM | [30] > 100 µM | [31] > 100 µM | [32] > 100 µM | [33] > 100 µM | [34] 95.1 µM | [35] > 100 µM | [36] > 100 µM | [37] > 100 µM | [38] > 100 µM | [39] > 100 µM | [40] > 100 µM | [41] > 100 µM | [42] > 100 µM | [43] > 100 µM | [44] > 100 µM | [45] > 100 µM | [46] > 100 µM | [47] > 100 µM | [48] > 100 µM | [49] > 100 µM | [50] > 100 µM | [51] > 100 µM | [52] > 100 µM | [53] > 100 µM
> 100 µM: [13]

CS(=O)(=O)c1nc(-c2cc3c(c(S(C)(=O)=O)n2)CCC3)cc2c1CCCC2
inactive: [1] > 100 µM | [2] > 100 µM | [3] > 100 µM | [4] > 100 µM | [5] 2.55 µM | [6] 32.4 µM | [7] > 100 µM | [8] > 100 µM | [9] 18.3 µM | [10] > 100 µM | [14] 7.76 µM | [15] 48.6 µM | [16] > 100 µM | [54] > 100 µM | [55] > 100 µM | [17] 7.71 µM | [19] 24.6 µM | [20] > 100 µM | [21] > 100 µM | [22] 29.7 µM | [23] 64.9 µM | [24] 17 µM | [25] > 100 µM | [26] 24.4 µM | [27] 32.1 µM | [28] > 100 µM | [29] > 100 µM | [30] > 100 µM | [31] > 100 µM | [32] 35.3 µM | [33] 58.3 µM | [34] > 100 µM | [35] > 100 µM | [36] > 100 µM | [37] 38.9 µM | [38] 19.1 µM | [39] 18.7 µM | [40] 14.4 µM | [41] > 100 µM | [42] 27.1 µM | [43] 49.3 µM | [44] > 100 µM | [45] 37 µM | [46] > 100 µM | [47] 24.1 µM | [48] > 100 µM | [49] 17 µM | [50] > 100 µM | [51] 8.63 µM | [52] 15.6 µM | [53] > 100 µM
> 100 µM: [13]

CN1C(=O)c2ccccc2NC(=O)C12O[C@@H]2c1cccc(O)c1 (stereo partly specified)
> 100 µM: [13]
inactive: [1] > 100 µM | [2] > 100 µM | [3] > 100 µM | [4] > 100 µM | [56] > 100 µM | [5] > 100 µM | [6] > 100 µM | [7] > 100 µM | [8] > 100 µM | [57] > 100 µM | [9] > 100 µM | [10] > 100 µM | [11] > 100 µM | [12] > 100 µM | [14] > 100 µM | [15] > 100 µM | [16] > 100 µM | [55] > 100 µM | [17] > 100 µM | [18] > 100 µM | [19] > 100 µM | [20] > 100 µM | [21] > 100 µM | [22] > 100 µM | [23] > 100 µM | [24] > 100 µM | [25] > 100 µM | [28] > 100 µM | [29] > 100 µM | [30] > 100 µM | [58] > 100 µM | [32] > 100 µM | [33] > 100 µM | [34] > 100 µM | [35] > 100 µM | [36] > 100 µM | [37] > 100 µM | [38] > 100 µM | [39] > 100 µM | [40] > 100 µM | [41] 95.9 µM | [42] > 100 µM | [43] > 100 µM | [44] > 100 µM | [45] > 100 µM | [46] > 100 µM | [47] > 100 µM | [48] > 100 µM | [49] > 100 µM | [59] > 100 µM | [50] > 100 µM | [51] > 100 µM | [53] > 100 µM

c1cc2sc1CSCCSCCSC2
inactive: [1] > 100 µM | [2] > 100 µM | [3] > 100 µM | [4] > 100 µM | [6] > 100 µM | [7] > 100 µM | [57] > 100 µM | [9] > 100 µM | [10] > 100 µM | [11] > 100 µM | [12] > 100 µM | [14] > 100 µM | [15] > 100 µM | [16] > 100 µM | [54] > 100 µM | [17] > 100 µM | [18] > 100 µM | [20] > 100 µM | [21] > 100 µM | [22] > 100 µM | [23] > 100 µM | [25] > 100 µM | [26] > 100 µM | [27] > 100 µM | [28] > 100 µM | [29] > 100 µM | [30] > 100 µM | [32] > 100 µM | [33] > 100 µM | [34] > 100 µM | [35] > 100 µM | [36] > 100 µM | [37] > 100 µM | [38] > 100 µM | [39] > 100 µM | [40] > 100 µM | [41] > 100 µM | [42] > 100 µM | [43] > 100 µM | [44] > 100 µM | [46] > 100 µM | [47] > 100 µM | [48] > 100 µM | [49] > 100 µM | [59] > 100 µM | [50] > 100 µM | [51] > 100 µM | [53] > 100 µM
> 100 µM: [13]

CCN1C(=O)/C(=C\Nc2ccccc2)S/C1=N/Nc1ncc(CC(=O)Nc2ccccc2C)s1
inactive: [1] 58.2 µM | [2] > 100 µM | [3] 91 µM | [4] > 100 µM | [56] > 100 µM | [5] 45.6 µM | [6] > 100 µM | [7] 33.7 µM | [8] > 100 µM | [57] 45.3 µM | [9] > 100 µM | [10] > 100 µM | [11] 29.1 µM | [12] 82.2 µM | [14] 88.5 µM | [15] 45 µM | [16] > 100 µM | [54] 43.6 µM | [55] 36.5 µM | [17] 38.7 µM | [18] 67.6 µM | [19] > 100 µM | [20] > 100 µM | [21] > 100 µM | [22] 64.7 µM | [23] 75.5 µM | [24] > 100 µM | [25] 74 µM | [26] > 100 µM | [28] > 100 µM | [29] > 100 µM | [30] > 100 µM | [58] > 100 µM | [31] 11.2 µM | [32] > 100 µM | [33] > 100 µM | [34] 42.6 µM | [35] > 100 µM | [36] 46.5 µM | [37] > 100 µM | [38] 71.6 µM | [39] > 100 µM | [40] 83.6 µM | [41] > 100 µM | [42] 60.5 µM | [43] > 100 µM | [44] > 100 µM | [45] 83.8 µM | [46] 82.6 µM | [47] > 100 µM | [48] 51.5 µM | [49] 63.8 µM | [59] 38.2 µM | [50] 43.7 µM | [51] 28.4 µM | [52] > 100 µM | [53] 44.9 µM
> 100 µM: [13]
